Experimental data taken from publication PMC8954350, “Non-Canonical Cannabinoid Receptors with Distinct Binding and Signaling Properties in Prostate and Other Cancer Cell Types Mediate Cell Death” (International Journal of Molecular Sciences, 2022).

Assays:
[1] = tested on: CBRs expressed in C6-glioma cells; experiment: [^3H]CP-55,940 competitive binding screen, C6-glioma membranes; set-up: species or system mouse; settings: 1 μM ligand, 0.2 nM radioligand
Description: (§1) The assay was conducted as previously detailed. […] All binding reactions were conducted in triplicate, in a final volume of 1 mL, and, following mixing, were incubated for 20 min in a 37 °C water bath to achieve equilibrium. After incubation, reactions were terminated by rapid vacuum filtration through Whatman GF/B glass fiber filters (Brandel; Gaithersburg, MD, USA), followed by three washes of 4 mls of ice-cold filtration buffer (50 mM Tris, pH 7.4, and 0.05% bovine serum albumin). Samples were punched out from filter papers into scintillation vials, to which 4 mls of ScintiverseTM-BDR cocktail scintillation fluid (Fisher Scientific; Hampton, NH, USA) was added. Filters were incubated at room temperature for 24 h in scintillation fluid, vortexed, and radioactivity (measured as DPMs) was quantified via a liquid scintillation spectrophotometer (Tri Carb 2100 TR Liquid Scintillation Analyzer, Packard Instruments, Meriden, CT, USA).

[2] = tested on: CBRs expressed in PC-3 cells; experiment: [^3H]CP-55,940 competitive binding screen, PC-3 membranes; set-up: species or system human; settings: 1 μM ligand, 0.2 nM radioligand
Description: as §1

[3] = tested on: CBRs expressed in DU-145 cells; experiment: [^3H]CP-55,940 competitive binding screen, DU-145 membranes; set-up: species or system human; settings: 1 μM ligand, 0.2 nM radioligand
Description: as §1

[4] = tested on: CBRs expressed in C6-glioma cells; experiment: [^3H]WIN-55,212-2 competitive binding screen, C6-glioma membranes; set-up: species or system mouse; settings: 1 μM ligand, 1 nM radioligand
Description: as §1

[5] = molecular target: non-canonical CBRs expressed in HeLa; experiment: Homologous receptor binding, HeLa; set-up: species or system human; settings: homologous competition with [^3H]WIN-55,212-2 (1 nM), read-out: affinity (KD)
Description: (§2) All binding reactions were conducted in triplicate, in a final volume of 1 mL, and, following mixing, were incubated for 20 min in a 37 °C water bath to achieve equilibrium. After incubation, reactions were terminated by rapid vacuum filtration and processed for radioactivity, as detailed in Section 4.5.1.
(§3) Curve-fitting and all statistical analyses were performed using GraphPad Prism® v8.0g (GraphPad Software, Inc.; San Diego, CA, USA). For qRT-PCR experiments, a one-way ANOVA, followed by Dunnett’s test as a post hoc test was utilized to compare fold change of PC-3 and DU-145 cancer cells to an arbitrary value of 1, set to the amount of mRNA transcribed from a human normal prostate control. For CBR screening studies, a one-sample t-test was performed to determine differences from 100% (e.g., to quantify compounds producing displacement), followed by a one-way ANOVA and Tukey’s post hoc tests to compare displacement produced by all drugs. […] For LDH release, ATP-dependent cell viability and JC-1 staining assays, drug effects were first analyzed by a one-sample t-test to determine differences from 0 or 100% (vehicle), followed by a one-way ANOVA and Dunnett’s post hoc test to compare all means. […]

[6] = molecular target: non-canonical CBRs expressed in PC-3; experiment: Homologous receptor binding, PC-3; set-up: species or system human; settings: homologous competition with [^3H]WIN-55,212-2 (1 nM), read-out: affinity (KD)
Description: as §2, §3

[7] = tested on: canonical human CB2Rs (CHO-hCB2); set-up: method as in PMID 34592231; settings: 1 μM ligand, 0.2 nM radioligand, CHO-hCB2 membranes; cited from earlier work
[8] = tested on: canonical human CB2Rs (CHO-hCB2); set-up: method as in PMID 34592231; settings: 1 μM ligand, 1 nM radioligand, CHO-hCB2 membranes; cited from earlier work
human CB1 receptors = molecular target: T1, human CB1 receptors (Homo sapiens, UniProt P21554); experiment: Competition binding, CHO-hCB1 membranes; settings: membranes from CHO cells stably expressing human CB1
T1 construct: host or cells: CHO
T1 sequence (P21554 whole entry): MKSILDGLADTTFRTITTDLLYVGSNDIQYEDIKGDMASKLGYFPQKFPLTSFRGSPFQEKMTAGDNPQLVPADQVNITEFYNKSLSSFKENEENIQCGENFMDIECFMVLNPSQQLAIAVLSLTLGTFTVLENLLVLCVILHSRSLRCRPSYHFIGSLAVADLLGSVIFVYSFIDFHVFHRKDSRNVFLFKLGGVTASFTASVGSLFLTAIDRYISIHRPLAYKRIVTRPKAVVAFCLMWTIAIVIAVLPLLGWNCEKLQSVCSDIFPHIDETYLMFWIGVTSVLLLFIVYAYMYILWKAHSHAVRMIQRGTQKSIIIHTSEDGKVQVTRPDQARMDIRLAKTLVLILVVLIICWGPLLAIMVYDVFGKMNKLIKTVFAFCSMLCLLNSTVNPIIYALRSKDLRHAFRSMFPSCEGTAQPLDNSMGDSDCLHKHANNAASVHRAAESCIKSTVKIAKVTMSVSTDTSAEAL
Description: as §2, with “The assay was performed as previously detailed. […] All” for “All”
Curve-fitting and all statistical analyses were performed using GraphPad Prism® v8.0g (GraphPad Software, Inc.; San Diego, CA, USA). […] For CBR screening studies, a one-sample t-test was performed to determine differences from 100% (e.g., to quantify compounds producing displacement), followed by a one-way ANOVA and Tukey’s post hoc tests to compare displacement produced by all drugs. […] To compare specific CBR affinity (Ki) between ligands, non-linear regression analysis was employed to determine experimental IC50 values from competition receptor binding assays, which were then converted to Ki values using the Cheng–Prusoff equation [35]. […] For LDH release, ATP-dependent cell viability and JC-1 staining assays, drug effects were first analyzed by a one-sample t-test to determine differences from 0 or 100% (vehicle), followed by a one-way ANOVA and Dunnett’s post hoc test to compare all means. […]

NPrEC = experiment: LDH cytotoxicity, NPrEC cells; format: cell-based; settings: NPrEC immortalized non-cancerous cell line

Q: Which results are given for Cc1c(C(=O)c2cccc3ccccc23)c2cccc3c2n1[C@H](CN1CCOCC1)CO3 [WIN-55,212-2]?
A: displacement of [^3H]CP-55,940 [1]: neither the non-selective CBR ligand CP-55,940 nor WIN-55,212-2 produced significant displacement; displacement of [^3H]CP-55,940 [2]: neither the non-selective CBR ligand CP-55,940 nor WIN-55,212-2 produced significant displacement; displacement of [^3H]CP-55,940 [3]: neither the non-selective CBR ligand CP-55,940 nor WIN-55,212-2 produced significant displacement; displacement of [^3H]WIN-55,212-2 (Figure 1B) [4]: significantly displaced; Kd [5]: 7 ± 1.6 nM; Kd [6]: 8.4 ± 2.1 nM; displacement of [^3H]CP-55,940 [7]: produced near or complete displacement; displacement of [^3H]WIN-55,212-2 (Figure 1B) [8]: produced near or complete displacement

Q: With COc1ccc2c(c1)c(CCN1CCOCC1)c(C)n2C(=O)c1cccc(Cl)c1Cl [GW-405833] as the compound, how does the Ki (human CB1 receptors) read?
A: 747 nM

Q: What about the LDH release (NPrEC) of the same compound?
A: 46.4 ± 6.4%
